Data: US10189843B2, “Fused pyrazole derivative having autotaxin inhibitory activity” (The University of Tokyo, priority 2014, dated 2019)

Target: T1, Human autotaxin enzyme (Homo sapiens, UniProt Q13822)
T1 construct: purchased R&D System
Assay: Evaluation of autotaxin inhibitor, Method C (18:0 Lyso PC substrate, choline assay, Resorufin fluorescence)
Assay type: biochemical
Details: Method C (Test Example 3), read-out: Inhibitory activity (enzyme inhibitory activity, IC50)
Description: Test Example 3 (Method C) Evaluation of Autotaxin Inhibitor
Solution B containing 100 mM Tris-HCl buffer (pH7.5), 150 mM NaCl, 5 mM MgCl2, and 0.05% Triton X-100 was prepared. Human autotaxin enzyme (purchased from R&D System) was diluted with Solution B, and 2.5 μl of which was added to a solution of test compound in DMSO. Furthermore, 2.5 μl of 200 μM 18:0 Lyso PC (purchased from Avanti Polar Lipids) in Solution B was added and allowed to react at room temperature for 2 hours. After completion of the reaction, 15 μl of the coline assay reagent (100 mM Tris-HCl buffer (pH7.5), 5 mM MgCl2, 77 μg/ml coline oxidase, 10 μg/ml peroxydase, 25 μM 10-acetyl-3,7-dihydroxyphenoxazine, and excess autotaxin inhibitor) was added and allowed to react at room temperature for 20 minutes. The fluorescent dye Resorufin, which was produced by the reaction, was detected. The fluorescence was detected using ViewLux (PerkinElmer, Inc.) with a excitation wavelength of 531 nm and a fluorescence wavelength of 598 nm.
The percent inhibition of the test compound was calculated by assuming the sample with no test compound as 0% inhibition and the sample with no enzyme as 100% inhibition, and the percent inhibitions at different concentrations of the test compound were plotted to obtain a concentration-dependent curve.

| IC50 [nM] | Structure (SMILES) |
| --- | --- |
| 10 to 100 | CCCCCC1CN(CC(=O)OCC)C(=O)c2cc(-c3ccc(Cl)cc3)nn21 (stereo not shown) [Compound I-0002] |
| ≥ 1000 | CCCCCC1CN(CC(=O)O)C(=O)c2cc(-c3ccc(Cl)cc3)nn21 (stereo not shown) [Compound I-0003] |
| 100 to 1000 | CCCCCC1CN(CNC(=O)OC(C)(C)C)C(=O)c2cc(-c3ccc(Cl)cc3)nn21 (stereo not shown) [Compound I-0005] |
| 100 to 1000 | CCCCCC1CN(CCO)C(=O)c2cc(-c3ccc(Cl)cc3)nn21 (stereo not shown) [Compound I-0006] |
| 10 to 100 | CCCCCC1CN(CNC(C)=O)C(=O)c2cc(-c3ccc(Cl)cc3)nn21 (stereo not shown) [Compound I-0008] |
| ≥ 1000 | CC1(C)CN(CC(=O)N2CCC(C(=O)O)CC2)C(=O)c2cc(-c3ccc(Cl)cc3)nn21 [Compound I-0016] |
| ≥ 1000 | CCOC(=O)CN1CC(CC)n2nc(-c3ccc(Cl)cc3)cc2C1=O (stereo not shown) [Compound I-0017] |
| ≥ 1000 | CCOC(=O)CN1CC(C2CC2)n2nc(-c3ccc(Cl)cc3)cc2C1=O (stereo not shown) [Compound I-0018] |
| ≥ 1000 | CCOC(=O)CN1C[C@H](c2ccccc2)n2nc(-c3ccc(Cl)cc3)cc2C1=O [Compound I-0021] |
| ≥ 1000 | CCOC(=O)CN1CC(CC(F)(F)F)n2nc(-c3ccc(Cl)cc3)cc2C1=O (stereo not shown) [Compound I-0023] |
| 100 to 1000 | CCOC(=O)CN1CC(Cc2ccccc2)n2nc(-c3ccc(Cl)cc3)cc2C1=O (stereo not shown) [Compound I-0025] |
| ≥ 1000 | CCOC(=O)CN1CC(COCc2ccccc2)n2nc(-c3ccc(Cl)cc3)cc2C1=O (stereo not shown) [Compound I-0026] |
| ≥ 1000 | CCOC(=O)CN1C(=O)c2cc(-c3ccc(Cl)cc3)nn2C2COCC21 (stereo not shown) [Compound I-0027] |
| ≥ 1000 | O=C(O)C1CCN(C(=O)CN2C(=O)c3cc(-c4ccc(Cl)cc4)nn3C3COCC32)CC1 (stereo not shown) [Compound I-0028] |
| ≥ 1000 | O=C(O)C1CN(C(=O)CN2C(=O)c3cc(-c4ccc(Cl)cc4)nn3C3COCC32)C1 (stereo not shown) [Compound I-0029] |
| ≥ 1000 | CCCCCC1CN(CC(=O)N2CCCCC2Cc2ccccc2)C(=O)c2cc(-c3ccc(Cl)cc3)nn21 (stereo not shown) [Compound I-0030] |

| IC50 [nM] | Structure (SMILES) |
| --- | --- |
| ≥ 1000 | CCCCCCC1CCCN1C(=O)CN1CC(CCCCC)n2nc(-c3ccc(Cl)cc3)cc2C1=O (stereo not shown) [Compound I-0031] |
| 100 to 1000 | CCCCCC1CN(CC(=O)N2CCC(CC(C)C)C2)C(=O)c2cc(-c3ccc(Cl)cc3)nn21 (stereo not shown) [Compound I-0039] |
| 100 to 1000 | CCCCCC1CN(CC(=O)N2CCCC2CO)C(=O)c2cc(-c3ccc(Cl)cc3)nn21 (stereo not shown) [Compound I-0040] |
| 10 to 100 | CCCCCC1CN(CC(=O)N(C)CC(=O)O)C(=O)c2cc(-c3ccc(Cl)cc3)nn21 (stereo not shown) [Compound I-0043] |
| 10 to 100 | CCCCCC1CN(CC(=O)NCCC(=O)O)C(=O)c2cc(-c3ccc(Cl)cc3)nn21 (stereo not shown) [Compound I-0044] |
| 10 to 100 | CCCCCC1CN(CC(=O)NCCCC(=O)O)C(=O)c2cc(-c3ccc(Cl)cc3)nn21 (stereo not shown) [Compound I-0047] |
| 10 to 100 | CCCCCC1CN(CC(=O)N2CCC(CC(=O)O)CC2)C(=O)c2cc(-c3ccc(Cl)cc3)nn21 (stereo not shown) [Compound I-0048] |
| < 10 | CCCCCC1CN(CC(=O)N2CCCCC2C(=O)O)C(=O)c2cc(-c3ccc(Cl)cc3)nn21 (stereo not shown) [Compound I-0052] |
| 100 to 1000 | CCCCCC1CN(CC(=O)NC[C@H]2CC[C@H](C(=O)O)CC2)C(=O)c2cc(-c3ccc(Cl)cc3)nn21 (stereo partly shown) [Compound I-0054] |
| < 10 | CCCCCC1CN(CC(=O)NC(Cc2ccccc2)C(=O)O)C(=O)c2cc(-c3ccc(Cl)cc3)nn21 (stereo not shown) [Compound I-0055] |
| 100 to 1000 | CCCCCC1CN(CC(=O)Nc2ccc(CCC(=O)O)cc2)C(=O)c2cc(-c3ccc(Cl)cc3)nn21 (stereo not shown) [Compound I-0058] |
| 100 to 1000 | CCCCCC1CN(CC(=O)NC2CCC(C(=O)O)CC2)C(=O)c2cc(-c3ccc(Cl)cc3)nn21 (stereo not shown) [Compound I-0060] |
| 10 to 100 | CCCCCC1CN(CC(=O)NCCCCC(=O)O)C(=O)c2cc(-c3ccc(Cl)cc3)nn21 (stereo not shown) [Compound I-0061] |
| < 10 | CCCCCC1CN(CC(=O)NC(CCC)C(=O)O)C(=O)c2cc(-c3ccc(Cl)cc3)nn21 (stereo not shown) [Compound I-0062] |
| < 10 | CCCCCC1CN(CC(=O)N[C@@H](C(=O)O)c2ccccc2)C(=O)c2cc(-c3ccc(Cl)cc3)nn21 (stereo partly shown) [Compound I-0064] |

The next lines start with the compound.

| Structure (SMILES) | IC50 [nM] |
| --- | --- |
| CCCCCC1CNC(=O)c2cc(-c3ccc(Cl)cc3)nn21 (stereo not shown) [Compound I-0001] | ≥ 1000 |
| CCCCCC1CN(CC(=O)N2CCC(C(=O)OCC)CC2)C(=O)c2cc(-c3ccc(Cl)cc3)nn21 (stereo not shown) [Compound I-0004] | 10 to 100 |
| CCCCCC1CN(CC(=O)N2CCC(C(=O)O)CC2)C(=O)c2cc(-c3ccc(Cl)cc3)nn21 (stereo not shown) [Compound I-0007] | < 10 |
| CCOC(=O)CN1C(=O)c2cc(-c3ccc(Cl)cc3)nn2[C@H]2CCC[C@H]21 [Compound I-0009] | 100 to 1000 |
| CCOC(=O)CN1C(=O)c2cc(-c3ccc(Cl)cc3)nn2[C@@H]2CCC[C@@H]21 [Compound I-0010] | ≥ 1000 |
| CCOC(=O)C1CCN(C(=O)CN2C(=O)c3cc(-c4ccc(Cl)cc4)nn3[C@@H]3CCC[C@@H]32)CC1 [Compound I-0011] | ≥ 1000 |
| O=C(O)C1CCN(C(=O)CN2C(=O)c3cc(-c4ccc(Cl)cc4)nn3[C@H]3CCC[C@H]32)CC1 [Compound I-0012] | 100 to 1000 |
| O=C(O)C1CCN(C(=O)CN2C(=O)c3cc(-c4ccc(Cl)cc4)nn3[C@@H]3CCC[C@@H]32)CC1 [Compound I-0013] | ≥ 1000 |
| CCOC(=O)CN1CC(C)(C)n2nc(-c3ccc(Cl)cc3)cc2C1=O [Compound I-0014] | ≥ 1000 |
| CCOC(=O)C1CCN(C(=O)CN2CC(C)(C)n3nc(-c4ccc(Cl)cc4)cc3C2=O)CC1 [Compound I-0015] | ≥ 1000 |
| CCOC(=O)CN1C[C@H](C)n2nc(-c3ccc(Cl)cc3)cc2C1=O [Compound I-0019] | ≥ 1000 |
| CCOC(=O)CN1C[C@@H](C)n2nc(-c3ccc(Cl)cc3)cc2C1=O [Compound I-0020] | ≥ 1000 |
| CCOC(=O)CN1CC(C(C)C)n2nc(-c3ccc(Cl)cc3)cc2C1=O (stereo not shown) [Compound I-0022] | ≥ 1000 |
| O=C1NCC(COCc2ccccc2)n2nc(-c3ccc(Cl)cc3)cc21 (stereo not shown) [Compound I-0024] | ≥ 1000 |
| CCCCCC1CN(CC(=O)N2CCC(Cc3ccccc3)C2)C(=O)c2cc(-c3ccc(Cl)cc3)nn21 (stereo not shown) [Compound I-0032] | 100 to 1000 |
| CCCCCC1CN(CC(=O)N2CCC(C(N)=O)CC2)C(=O)c2cc(-c3ccc(Cl)cc3)nn21 (stereo not shown) [Compound I-0033] | ≥ 1000 |
| CCCCCC1CN(CC(=O)N2CCC(N(C)C)C2)C(=O)c2cc(-c3ccc(Cl)cc3)nn21 (stereo not shown) [Compound I-0034] | ≥ 1000 |
| CCCCCC1CN(CC(=O)N2CCC(O)C2)C(=O)c2cc(-c3ccc(Cl)cc3)nn21 (stereo not shown) [Compound I-0035] | 100 to 1000 |

| Structure (SMILES) | IC50 [nM] |
| --- | --- |
| CCCCCC1CN(CC(=O)N2CCC(c3ccccc3)CC2)C(=O)c2cc(-c3ccc(Cl)cc3)nn21 (stereo not shown) [Compound I-0036] | 10 to 100 |
| CCCCCC1CN(CC(=O)N2CCNC(=O)C2)C(=O)c2cc(-c3ccc(Cl)cc3)nn21 (stereo not shown) [Compound I-0037] | 10 to 100 |
| CCCCCC1CN(CC(=O)NCC(=O)N(C)C)C(=O)c2cc(-c3ccc(Cl)cc3)nn21 (stereo not shown) [Compound I-0038] | 100 to 1000 |
| CCCCCC1CN(CC(=O)N2CCCCC2C(=O)N2CCCCC2)C(=O)c2cc(-c3ccc(Cl)cc3)nn21 (stereo not shown) [Compound I-0041] | 10 to 100 |
| CCCCCC1CN(CC(=O)Nc2ccccc2C(=O)O)C(=O)c2cc(-c3ccc(Cl)cc3)nn21 (stereo not shown) [Compound I-0042] | 100 to 1000 |
| CCCCCC1CN(CC(=O)NCc2ccc(C(=O)O)cc2)C(=O)c2cc(-c3ccc(Cl)cc3)nn21 (stereo not shown) [Compound I-0045] | 100 to 1000 |
| CCCCCC1CN(CC(=O)NCCCCCC(=O)O)C(=O)c2cc(-c3ccc(Cl)cc3)nn21 (stereo not shown) [Compound I-0046] | 100 to 1000 |
| CCCCCC1CN(CC(=O)Nc2cccc(C(=O)O)c2)C(=O)c2cc(-c3ccc(Cl)cc3)nn21 (stereo not shown) [Compound I-0049] | 10 to 100 |
| CCCCCC1CN(CC(=O)N2CCCC(C(=O)O)C2)C(=O)c2cc(-c3ccc(Cl)cc3)nn21 (stereo not shown) [Compound I-0050] | 10 to 100 |
| CCCCCC1CN(CC(=O)NC2CCC[C@@H]2C(=O)OCC)C(=O)c2cc(-c3ccc(Cl)cc3)nn21 (stereo partly shown) [Compound I-0051] | 100 to 1000 |
| CCCCCC1CN(CC(=O)N2CCCC(CC(=O)O)C2)C(=O)c2cc(-c3ccc(Cl)cc3)nn21 (stereo not shown) [Compound I-0053] | 10 to 100 |
| CCCCCC1CN(CC(=O)Nc2cccc(CC(=O)O)c2)C(=O)c2cc(-c3ccc(Cl)cc3)nn21 (stereo not shown) [Compound I-0056] | 10 to 100 |
| CCCCCC1CN(CC(=O)NCCCCCCC(=O)O)C(=O)c2cc(-c3ccc(Cl)cc3)nn21 (stereo not shown) [Compound I-0057] | 100 to 1000 |
| CCCCCC1CN(CC(=O)NCC(=O)O)C(=O)c2cc(-c3ccc(Cl)cc3)nn21 (stereo not shown) [Compound I-0059] | 10 to 100 |
| CCCCCC1CN(CC(=O)N2C[C@@H]3C(C(=O)O)[C@@H]3C2)C(=O)c2cc(-c3ccc(Cl)cc3)nn21 (stereo partly shown) [Compound I-0063] | 10 to 100 |
| CCCCCC1CN(CC(=O)N2CCCC2C(=O)O)C(=O)c2cc(-c3ccc(Cl)cc3)nn21 (stereo not shown) [Compound I-0065] | 10 to 100 |
| CCCCCC1CN(CC(=O)N2CCC(C(=O)O)C2)C(=O)c2cc(-c3ccc(Cl)cc3)nn21 (stereo not shown) [Compound I-0066] | 10 to 100 |
| CCCCCC1CN(CC(=O)Nc2ccccc2CC(=O)O)C(=O)c2cc(-c3ccc(Cl)cc3)nn21 (stereo not shown) [Compound I-0067] | 100 to 1000 |
